Assay results: patent US7687079B2, “Methods of treating ileus” (priority 2002, dated 2010)

How the values were obtained:
[1] = test system: serum nitrite/nitrate; test: serum nitrite/nitrate levels after SITx (Griess reaction); type: in vivo, rat; conditions: SITx + CO vs SITx with air
Protocol: To monitor the stable end-products of NO metabolism, serum […] levels at 1, 4, and 24 hrs were measured using a commercially available test kit (Cayman, Ann Arbor, Mich.) and quantified according to the manufacturer's directions. In this assay system, nitrate is reduced to nitrite using nitrate reductase, and the nitrite concentration of the sample is subsequently measured using the Griess reaction.
FIG. 6 is a set of bar graphs that illustrate the effect of CO on serum IL-6 and nitrate/nitrite concentrations in animals receiving intestinal grafts at one and four hours after reperfusion. […] Serum IL-6 concentrations were determined using a rat enzyme-linked immunoassay (ELISA) kit (R&D, Cambridge, Mass.). The serum nitrite/nitrate levels, the stable end products of NO metabolism, were measured using a commercially available test kit (Cayman, Ann Arbor, Mich.). In this assay system, nitrate is reduced to nitrite using nitrate reductase, and nitrite concentration of the sample was subsequently measured using the Griess reaction. Serum IL-6 and nitrite/nitrate levels in animals subjected SITx and treated with air increased over time.

[2] = test system: IL-1β protein; test: IL-1β protein release from muscularis extracts (ELISA); type: in vivo, mouse
Protocol: (§1) Protein and Nitric Oxide Determinations. The small bowel of control and mice subjected to intestinal manipulation was removed under sterile conditions, 4 or 24 hours post-operatively, leaving the colon in situ. The small intestine was transferred to a beaker containing chilled Hanks balanced salt solution (Sigma, St. Louis, Mo.) with 200 U/ml penicillin G and 200 μg/ml streptomycin (HBSS), the lumen flushed, and the tissue transferred to a second beaker of HBSS. The muscularis was harvested as described above for real time RT-PCR. Tissues were maintained under sterile conditions at 3 to 5° C. throughout the harvesting procedure. Isolated muscularis was blotted onto sterile gauze, and the wet weight determined to obtain aliquots of 40 to 60 mg. Tissue aliquots were washed twice in HBSS, transferred to 35 mm well culture plates containing 3 ml of serum-free DMEM containing penicillin/streptomycin, and incubated for 24 hrs in a humidified 5% CO2 incubator at 37° C. Pharmacological agents added to the culture medium were filter sterilized prior to use.
After the incubation period, the muscle tissue was pelleted, and aliquots of culture medium were frozen in liquid nitrogen and stored at −80° C. The levels of IL-6, IL-1β, PGE2, and IL-10 proteins secreted into the culture medium were determined using commercially available ELISA kits (R&D Systems, Minneapolis, Minn.) according to the manufacturer's instructions. Nitric oxide (NO) released into the culture medium was estimated by measuring the stable end products of NO metabolism. Nitrate/nitrate levels were measured 24 hrs postoperatively using commercially available test kit (Oxford Biomedical Research, Oxford, Mich.) and quantified according to the manufacturer's directions. In this assay system, nitrate is reduced to nitrite using granulated cadmium, and the total nitrite concentration is subsequently measured using the Griess reaction. All measurements were normalized to tissue wet weight.

[3] = test system: IL-6 protein; test: IL-6 protein release from isolated muscularis (ELISA); type: in vivo, mouse
Protocol: as §1, with “Tissue aliquots were washed twice in HBSS, transferred to 35 mm well culture plates containing 3 ml of serum-free DMEM containing penicillin/streptomycin, and incubated for 24 hrs in a humidified 5% CO2 incubator at 37° C. Pharmacological agents added to the culture medium were filter sterilized prior to use.” left out
After the incubation period, the muscle tissue was pelleted, and aliquots of culture medium were frozen in liquid nitrogen and stored at −80° C. The levels of IL-6, IL-1β, PGE2, and IL-10 proteins secreted into the culture medium were determined using commercially available ELISA kits (R&D Systems, Minneapolis, Minn.) according to the manufacturer's instructions. […] Nitrate/nitrate levels were measured 24 hrs postoperatively using commercially available test kit (Oxford Biomedical Research, Oxford, Mich.) and quantified according to the manufacturer's directions. […]

[4] = test system: MPO+ cells infiltrating the muscularis; test: MPO histochemistry, leukocytes infiltrating intestinal muscularis after IM; type: in vivo, mouse; conditions: control and IM groups, 24 hr
Protocol: MPO Histochemistry. Muscularis whole-mounts were prepared from the mid-jejunum collected 24 hr post-operatively. Segments of intestine were immersed in KRB in a Sylgard lined glass dish (Midland, Mich.) and pinned without stretching along the mesenteric border. The length and width of the segments were measured with a caliper. The jejunal segment was then opened along the mesenteric border and stretched to 150% of the length and 250% of the width. The mucosa was removed using fine forceps, and the remaining tissue fixed in 100% denatured ethanol for 30 min. […] Tissues were mounted on glass slides using Gel/Mount™ (Biomedia Corp., Foster City, Calif.), cover-slipped and inspected by light microscopy (Nikon Microphot-FXA, Fryer, Huntley, Ill.) at a magnification of 200×. PMN's were counted in five to six adjacent optical fields centered between the mesenteric and antimesenteric borders.

[5] = test system: ICAM-1 mRNA; test: ICAM-1 mRNA expression in muscularis externae of intestinal grafts (real time RT-PCR); type: in vivo, rat; conditions: SITx recipients treated with CO, 4 hours after reperfusion
Protocol: The effects of inhalation of CO on transplant-induced pro-inflammatory and anti-inflammatory gene expression was assessed in muscularis extracts by RT-PCR. Muscularis extemae was collected from normal intestine and transplanted grafts 4 hours postoperatively and snap frozen in liquid nitrogen. This time point falls within the range of maximum inflammatory mediator expression that occurs between 3 and 6 hours following abdominal incision. Total RNA extraction was performed using the guanidium-thiocyanate phenol-chloroform extraction method as described previously (Eskandari et al., Am. J. Clin. Pathol. 75(3):367-370 (1997)). RNA pellets were resuspended in RNA-secure resuspension solution (Ambion Inc., Austin, Tex.), followed by removal of potentially contaminating DNA by treatment with DNase I (DNA-Free Kit, Ambion Inc., Austin, Tex.). Equal aliquots (5 μg) of total RNA from each sample were quantified by spectrophotometry (wavelength […]) and aliquoted at a concentration of 40 ng/μl. Peak mRNA expression was quantified in duplicate by SYBR Green two-step, real-time RT-PCR. […] Real-time PCR data were plotted as the ΔRn, fluorescence signal versus the cycle number. […] Quantification of mRNA expression was normalized to GAPDH and calculated relative to control using the comparative CT method (Schmittgen et al., J. Biochem. Biophys. Methods 46(1-2):69-8 (2000)). […]

[6] = IM + CO vs IM, 24 hr after surgery

[C-]#[O+] [CO, carbon monoxide]
serum nitrite/nitrate level [1]: significantly decreased | IL-1β protein release [2, 6]: significantly attenuated | reduction of IL-1β protein release ([2]; IM + CO vs IM, extracts harvested 24 hr after surgery): 60% | IL-1β protein ([2]; control mice treated with CO): no IL-1β protein could be detected | IL-6 protein release [3, 6]: significantly attenuated | IL-6 protein release ([3]; IM mice treated with CO, 24 hr postoperatively): 2000 pg/mL | magnitude of the leukocyte infiltrate (MPO+ cells) [4]: no effect | ICAM-1 expression [5]: unchanged
